Experimental data from patent US10023565B2, “N,N′ substituted piperidinamine compounds, and preparation method and usage thereof” (Institute of Pharmacology and Toxicology Academy of …, priority 2013, dated 2018).

Legend:
Hsp70 = biological target: T1, Hsp70 (Homo sapiens, UniProt P0DMV8); assay: Measurement of affinity between compounds and Hsp70 (SPR, BIACORE T100); assay type: binding; conditions: for Kd: steady state model, 25° C., read-out: KD (binding constant between the compounds and Hsp70)
T1 construct: purchased Enzo Life Sciences ADI-ESP-550-D
T1 sequence (P0DMV8 whole entry): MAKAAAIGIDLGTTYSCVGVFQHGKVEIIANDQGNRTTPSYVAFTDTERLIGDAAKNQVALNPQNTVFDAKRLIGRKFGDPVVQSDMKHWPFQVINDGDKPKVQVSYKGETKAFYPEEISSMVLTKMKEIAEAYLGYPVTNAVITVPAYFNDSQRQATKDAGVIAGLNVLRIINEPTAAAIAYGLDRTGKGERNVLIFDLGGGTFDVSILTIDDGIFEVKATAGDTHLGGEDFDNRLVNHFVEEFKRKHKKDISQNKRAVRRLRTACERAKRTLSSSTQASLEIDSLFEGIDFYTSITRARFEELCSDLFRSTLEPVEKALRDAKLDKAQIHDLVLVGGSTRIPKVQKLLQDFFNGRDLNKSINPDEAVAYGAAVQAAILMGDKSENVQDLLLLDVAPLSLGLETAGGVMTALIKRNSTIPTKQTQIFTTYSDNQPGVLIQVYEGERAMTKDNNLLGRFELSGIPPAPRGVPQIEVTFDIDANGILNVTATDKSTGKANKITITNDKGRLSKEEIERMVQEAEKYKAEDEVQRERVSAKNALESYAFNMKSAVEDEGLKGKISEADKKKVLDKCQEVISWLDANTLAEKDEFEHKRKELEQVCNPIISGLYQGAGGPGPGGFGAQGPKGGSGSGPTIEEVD
Protocol: Instrument for measuring the affinity between Example compounds and Hsp70 is BIACORE T100 Biomolecular Interaction Analysis (GE, USA), and the positive control drug is VER-155008 that is well-recognized as Hsp70 inhibitor now, and, on the basis of the measured results, according to binding characteristics between the compounds and protein, the binding constant (equilibrium dissociation constant KD) between drugs and protein is calculated by selecting steady state model with the formula: Conc*Rmax/[conc+KD]+offset.
1. Instrument: BIACORE T100 Biomolecular Interaction Analysis (GE, USA)
2. Reagents: PBS Buffer (×10), P20, CM5 chip (GE, USA), Hsp70 (human, ADI-ESP-550-D), manufactured by Enzo Life Sciences.
30 mM mother liquor of the compound was formulated with DMSO, which was diluted to 2 mM application solution with DMSO before use. 5 μl of the application solution was taken and diluted with 95 μl 1.05×PBS to 100 μM, and then diluted in turn with PBS containing 5% DMSO to […]. PBS containing 5% DMSO was used as solvent control.
Hsp70 protein was diluted with 10 mmol/L sodium acetate buffer solution (pH 5.0) to 30 μg/ml, and coupled directly on a hydrophilic carboxylmethyl dextran matrix sensor chip M5 through normalized primary amine coupling reaction, RU=11209, and then the chip was balanced for 1-2 h with PBS Buffer at […].
At a flow rate of […], with PBS containing 5% DMSO as mobile phase, at 25° C., the compound was introduced in the sequence of 0.003, 0.01, 0.03, 0.1, 0.3, 1, 3 and 10 μM, with binding time of 90 seconds, and dissociation time of 120 seconds.
According to binding characteristics between the compounds and protein, the binding constant (equilibrium dissociation constant KD) between drugs and protein was calculated by selecting steady state model with the formula: Conc*Rmax/[conc+KD]+offset.

BT/Lap^R1.0 = assay: Antitumor bioactivity evaluation, breast cancer cells (ATPlite); assay type: cell-based, human; conditions: Homo sapiens; test sample 5 μM, 72 hours; read-out: Inhibitory Rate % BT/Lap^R1.0
How it was run: (§1)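 Cells seeded at 5000/well and allowed to adhere 24 h at 37 °C, then treated with compound at 5 μM final, alone or combined with lapatinib at 1 μM final, for 72 h at 37 °C. ATPlite luminescence was read; survival (%) = treated RLU/vehicle-control RLU ×100.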

MDA-MB-453 = assay: as above; assay type: cell-based; conditions: Homo sapiens, test sample 5 μM, 72 hours, read-out: Inhibitory Rate % MDA-MB-453
How it was run: as §1

SK/Lap^R1.0 = assay: as above; assay type: cell-based; conditions: Homo sapiens; test sample 5 μM, 72 hours; read-out: Inhibitory Rate % SKLap^R1.0
How it was run: as §1

BT474 = assay: as above; assay type: cell-based; conditions: Homo sapiens, BT-474; test sample 5 μM, 72 hours; read-out: Inhibitory Rate % BT474
How it was run: as §1

SK-BR3 = assay: as above; assay type: cell-based; conditions: Homo sapiens, SK-BR-3; test sample 5 μM, 72 hours; read-out: Inhibitory Rate % SK-BR3
How it was run: as §1

MDA-MB-361 = assay: as above; assay type: cell-based; conditions: Homo sapiens, test sample 5 μM, 72 hours, read-out: Inhibitory Rate % MDA-MB-361
How it was run: as §1

| SMILES | KD compared with positive control drug VER-155008 (Hsp70) | Kd (Hsp70) | inhibition at 5 µM (BT/Lap^R1.0) | inhibition at 5 µM (MDA-MB-453) | inhibition at 5 µM (SK/Lap^R1.0) | inhibition at 5 µM (BT474) | inhibition at 5 µM (SK-BR3) | inhibition at 5 µM (MDA-MB-361) |
| --- | --- | --- | --- | --- | --- | --- | --- | --- |
| Fc1ccc(CNC2CCN(Cc3cnc(Cl)s3)CC2)cc1 [Example 12, N-(4-fluorobenzyl)-N-{1-[(2-chlorothiazol-5-yl)methyl]piperidin-4-yl}amine] | KD values equivalent to that of the positive control drug VER-155008 | 200 nM | 9.1% | 0.1% | 4.4% | 5.4% | 22.4% | 4.8% |
| CN(Cc1ccccc1C#N)C1CCN(Cc2cnc(Cl)s2)CC1 [Example 14, N-methyl-N-(2-cyanobenzyl)-N-{1-[(2-chlorothiazol-5-yl)methyl]piperidin-4-yl}amine] | KD values equivalent to that of the positive control drug VER-155008 | 245 nM | 4% | 8.2% | 4.2% | -4.1% | 7.3% | -8.5% |
| COc1nccc(N2CCC(N(C)Cc3ccc(F)cc3)CC2)n1 [Example 57, N-methyl-N-(4-fluorobenzyl)-N-[1-(2-methoxypyrimidin-4-yl)piperidin-4-yl]amine] | KD values equivalent to that of the positive control drug VER-155008 | 281 nM | 14.6% | 40.4% | 9% | 12.5% | 14.4% | 12.8% |
| CSc1nccc(N2CCC(N(C)Cc3ccc(F)cc3)CC2)n1 [Example 35, N-methyl-N-(4-fluorobenzyl)-N-[1-(2-methylthiopyrimidin-4-yl)piperidin-4-yl]amine] | KD values equivalent to that of the positive control drug VER-155008 | 204 nM | 44.7% | 82.3% | 30.9% | 40.5% | 31.5% | 46% |
| Clc1cccc(CNC2CCN(Cc3cnc(Cl)s3)CC2)c1 [Example 13, N-(3-chlorobenzyl)-N-{1-[(2-chlorothiazol-5-yl)methyl]piperidin-4-yl}amine] |  |  | 7.2% | 2.4% | 4.1% | 3.8% | 17.9% | 3.2% |
| COc1cc(N2CCC(N(C)Cc3cccc(F)c3)CC2)ncn1 [Example 68, N-methyl-N-(3-fluorobenzyl)-N-[1-(6-methoxypyrimidin-4-yl)piperidin-4-yl]amine] |  |  | 5.6% | 9.4% | 30.1% | 5.4% | 5.2% | 8.4% |
| COc1nccc(N2CCC(N(C)Cc3ccc(Cl)c(Cl)c3)CC2)n1 [Example 53, N-methyl-N-(3,4-dichlorobenzyl)-N-[1-(2-methoxypyrimidin-4-yl)piperidin-4-yl]amine] |  |  | 35.8% | 60.2% | 16.8% | 52.9% | 27.7% | 41.7% |
| CSc1ncc(CN2CCC(N(C)Cc3c(F)cccc3Cl)CC2)s1 [Example 31, N-methyl-N-(2-fluoro-6-chlorobenzyl)-N-{1-[(2-methylthiothiazol-5-yl)methyl]piperidin-4-yl}amine] |  |  | 59.9% | 65.3% | 4.5% | 49.5% | 9.2% | 47.2% |
| Cc1ccccc1CN(C)C1CCN(Cc2cnc(Cl)s2)CC1 [Example 21, N-methyl-N-(2-methylbenzyl)-N-{[1-(2-chlorothiazol-5-yl)methyl]piperidin-4-yl}amine] |  |  | 4% | 3.5% | 5.1% | 1.5% | 9.7% | 4.4% |
| CN(Cc1cccc(F)c1)C1CCN(Cc2cnc(Cl)s2)CC1 [Example 23, N-methyl-N-(3-fluorobenzyl)-N-{[1-(2-chlorothiazol-5-yl)methyl]piperidin-4-yl}amine] |  |  | 5.7% | 4.4% | 1.3% | 2.4% | 4.2% | 3.2% |
